In data set [1] the test system is DRG neurons from wild-type C57BL/6 mice. Nature of the data set: Calcium imaging, wild-type DRG neurons. Type of data set: cell-based, mouse. How it is done:
DRG from all spinal levels were isolated from male and female mice (wild-type C57BL/6 J, Tmem233^Cre/Cre, NaV1.8^Cre/Cre, NaV1.9^−/− or littermate controls) as previously described[36],[38],[39]. For Ca^2+ imaging experiments, DRG neurons were dissociated following incubation with 1% collagenase type IV (Worthington, New Jersey, USA) for 1.5 h (37 °C, 5% CO2) and 2.5% trypsin (Sigma-Aldrich, Montana, USA) for 15 min and resuspended in Dulbecco’s modified Eagle’s medium (DMEM) (Sigma-Aldrich, New South Wales, Australia) supplemented with 10% fetal bovine serum (FBS) (Thermofisher, Massachusetts, USA) and penicillin/streptomycin (Thermofisher, Massachusetts, USA). Following plating in 96-well poly-D-lysine–coated culture plates, isolated neurons were incubated for 24 h at 37 °C with 5% CO2 prior to imaging.
Dissociated DRG neurons from Tmem233^Cre/Cre and C57BL/6 mice were plated on PDL-coated 96-well black-walled imaging plates and loaded with Fluo-4 AM calcium indicator (5 μM) (Invitrogen, Massachusetts, USA) for 1 h in culture medium. Cells were washed with Hanks’ balanced salt solution containing 20 mM HEPES and then transferred to the recording chamber of a Nikon Ti-E Deconvolution inverted microscope equipped with a Lumencor Spectra LED light source. Fluorescence images (excitation, 485 nm; emission, 521 nm) were acquired at 1 frame per second using a ×20 objective. Following the recording of baseline fluorescence (20 s), cells were consecutively exposed to buffer control (0.1% BSA, t = 30 s), ExTxA (10 nM, t = 60 s), and 30 mM KCl (30 mM, t = 210 s). […] Cells responding to buffer control were excluded from analysis.

The target of data set [2] is T1, NaV1.7/TMEM233 (Homo sapiens, UniProt B4DJY2+Q15858). The class given is cell-based. How it is done: Current-voltage (IV) curves were determined in HEK-NaV1.7 cells, in the absence and presence of TMEM233, from a series of step pulses (500 ms) ranging from −110 to +55 mV (5 mV increments, repetition interval 5 s) before and after incubation with ExTxA (1 μM) from a holding potential of −90 mV. Currents were converted to conductance (G) using G = I/(V − Vrev), with Vrev being the reversal potential, plotted against voltage and fitted with a Boltzmann equation to obtain GV (conductance-voltage) curves. Voltage dependence of steady-state fast inactivation was determined by a subsequent 10 ms pulse to −20 mV immediately following the 500 ms depolarization step detailed above to assess the available non-inactivated channels.

Data set [3] deals with T1, NaV1.7/TMEM233. Type of data set: cell-based. The settings on record: extracellular ExTxA. The method, then:
To determine recovery from fast inactivation, a 20 ms pulse to 0 mV from a holding potential of −90 mV was used to induce fast inactivation. A subsequent recovery period, ranging from 1 ms to 2216 ms in 50% increments at −90 mV, was followed by a last 20 ms test pulses to 0 mV to determine the time-dependence of recovery from fast inactivation. The proportion of available channels was determined by normalizing peak currents from the last to the first pulse. A two-phase exponential equation was fit to the normalized current, plotted as a function of time, to determine the time constants τ1 and τ2 of recovery from fast inactivation.

A further data set relates to hNaV1.2. Nature of the data set: Persistent current, HEK293-hNaV1.2/β1. The class given is cell-based, human. The settings on record: ExTxA 1 µM; individual cells.
The next data set deals with NaV1.7/TRARG1 (Homo sapiens, UniProt Q15858+Q8IXB3). The class given is cell-based.
Chain of NaV1.7/TRARG1 (Q07699 19-218): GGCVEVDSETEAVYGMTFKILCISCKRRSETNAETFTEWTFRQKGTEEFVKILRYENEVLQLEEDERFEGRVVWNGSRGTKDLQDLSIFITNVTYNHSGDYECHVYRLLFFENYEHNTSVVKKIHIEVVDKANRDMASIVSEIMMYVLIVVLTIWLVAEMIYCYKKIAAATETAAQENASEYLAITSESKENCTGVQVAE
Chain of NaV1.7/TRARG1 (Q15858 whole entry): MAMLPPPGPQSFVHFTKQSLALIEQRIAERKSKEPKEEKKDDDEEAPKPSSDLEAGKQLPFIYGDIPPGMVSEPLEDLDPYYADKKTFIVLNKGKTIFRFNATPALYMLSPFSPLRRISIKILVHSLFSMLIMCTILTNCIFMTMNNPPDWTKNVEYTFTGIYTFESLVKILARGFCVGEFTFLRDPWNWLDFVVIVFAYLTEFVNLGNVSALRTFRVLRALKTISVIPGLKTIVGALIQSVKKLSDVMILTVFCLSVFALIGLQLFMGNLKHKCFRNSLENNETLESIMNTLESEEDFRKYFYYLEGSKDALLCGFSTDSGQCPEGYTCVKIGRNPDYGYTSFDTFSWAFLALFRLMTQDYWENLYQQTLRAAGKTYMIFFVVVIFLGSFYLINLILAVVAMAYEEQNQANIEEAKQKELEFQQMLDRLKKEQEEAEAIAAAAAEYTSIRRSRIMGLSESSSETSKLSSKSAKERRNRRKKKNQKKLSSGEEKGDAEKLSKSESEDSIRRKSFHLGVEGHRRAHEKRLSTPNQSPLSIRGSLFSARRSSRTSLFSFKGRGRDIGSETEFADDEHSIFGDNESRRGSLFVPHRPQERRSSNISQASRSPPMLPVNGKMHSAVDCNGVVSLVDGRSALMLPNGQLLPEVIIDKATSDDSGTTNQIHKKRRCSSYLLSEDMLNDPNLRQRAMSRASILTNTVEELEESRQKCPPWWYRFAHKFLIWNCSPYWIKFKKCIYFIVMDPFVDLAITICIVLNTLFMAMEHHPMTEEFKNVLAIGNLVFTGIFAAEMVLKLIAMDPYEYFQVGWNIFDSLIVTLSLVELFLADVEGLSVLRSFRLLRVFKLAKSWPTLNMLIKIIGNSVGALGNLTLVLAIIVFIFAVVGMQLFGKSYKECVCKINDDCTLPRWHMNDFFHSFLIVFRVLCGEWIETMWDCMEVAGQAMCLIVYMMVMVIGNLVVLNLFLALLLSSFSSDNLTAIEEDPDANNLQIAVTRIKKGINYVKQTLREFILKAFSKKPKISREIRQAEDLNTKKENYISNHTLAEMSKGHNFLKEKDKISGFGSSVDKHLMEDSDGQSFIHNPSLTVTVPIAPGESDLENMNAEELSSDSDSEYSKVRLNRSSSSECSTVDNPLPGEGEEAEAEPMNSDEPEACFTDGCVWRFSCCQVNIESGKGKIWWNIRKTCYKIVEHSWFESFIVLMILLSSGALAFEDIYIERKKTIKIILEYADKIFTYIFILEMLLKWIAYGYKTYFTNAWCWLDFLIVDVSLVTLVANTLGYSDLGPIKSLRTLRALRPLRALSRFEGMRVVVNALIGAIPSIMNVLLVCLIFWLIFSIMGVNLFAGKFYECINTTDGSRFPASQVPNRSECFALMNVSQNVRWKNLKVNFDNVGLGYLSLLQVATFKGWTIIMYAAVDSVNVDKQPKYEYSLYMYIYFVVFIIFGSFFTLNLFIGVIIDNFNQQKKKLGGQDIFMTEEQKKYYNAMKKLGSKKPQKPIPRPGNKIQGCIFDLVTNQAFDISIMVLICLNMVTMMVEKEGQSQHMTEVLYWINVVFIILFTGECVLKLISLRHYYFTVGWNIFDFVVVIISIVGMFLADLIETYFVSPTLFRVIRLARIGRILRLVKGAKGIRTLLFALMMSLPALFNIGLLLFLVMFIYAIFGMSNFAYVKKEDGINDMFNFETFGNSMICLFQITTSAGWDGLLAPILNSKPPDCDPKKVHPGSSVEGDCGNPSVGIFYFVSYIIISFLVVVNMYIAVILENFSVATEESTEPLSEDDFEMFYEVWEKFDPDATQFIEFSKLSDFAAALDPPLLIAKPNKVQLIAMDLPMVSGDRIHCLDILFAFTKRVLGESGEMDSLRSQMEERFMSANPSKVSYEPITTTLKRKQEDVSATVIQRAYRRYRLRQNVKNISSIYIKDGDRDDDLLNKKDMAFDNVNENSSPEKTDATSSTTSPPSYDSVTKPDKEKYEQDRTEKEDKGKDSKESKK
Chain of NaV1.7/TRARG1 (Q8IXB3 whole entry): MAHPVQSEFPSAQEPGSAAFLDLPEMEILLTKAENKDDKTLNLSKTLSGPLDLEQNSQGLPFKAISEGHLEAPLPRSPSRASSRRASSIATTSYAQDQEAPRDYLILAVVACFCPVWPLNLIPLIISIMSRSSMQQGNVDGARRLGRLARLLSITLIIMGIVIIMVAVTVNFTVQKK
A further data set concerns wild-type C57BL/6 mice. As to conditions: cited from earlier work.
For another data set, the system named is Drosophila melanogaster. Type of data set: in vivo. As to conditions: injection 0.5 nmol, affected/total. How it is done: To test for insecticidal activity, we injected ExTxA into three-day old Drosophila melanogaster females (average weight 0.875 mg). In total 77 D. melanogaster were used for this study: 52 individuals were each injected with 0.5 nmol (50 nL of a […] solution) ExTxA, while 25 individuals served as control group and were injected with vehicle control (3% acetonitrile, 0.1% bovine serum albumin in water) and scored by a blinded observer.

Setting [4] is: individual cells, paired with buffer.

Each structure is given as a SMILES string. Values joined by “and” are separate entries in the source; they are usually repeats but may differ in a detail not shown here. Identical values can stand only once. Like-named read-outs stand apart in the source and are kept apart here. Positions of bridges follow the written chain, without caps; N, C: chain ends. Residues, ends and D or L forms follow the SMILES beside them.

As to `CC[C@H](C)[C@@H]1NC(=O)[C@H](CCCNC(=N)N)NC(=O)[C@H](Cc2ccccc2)NC(=O)[C@H](CC(C)C)NC(=O)[C@H](CO)NC(=O)[C@@H]2CSSC[C@@H]3NC(=O)[C@H]([C@@H](C)O)NC(=O)[C@H](CSSC[C@H](NC(=O)[C@H](CCCNC(=N)N)NC(=O)[C@@H]4CCCN4C(=O)[C@@H](N)CC(C)C)C(=O)N[C@@H](CC(=O)O)C(=O)N[C@@H](CO)C(=O)N4CCC[C@H]4C(=O)N[C@@H](Cc4ccccc4)C(=O)N2)NC(=O)[C@H](CCCCN)NC(=O)[C@H](CC(=O)O)NC(=O)CNC(=O)[C@H](CSSC[C@@H](C(=O)N[C@H](C(=O)N2CCC[C@H]2C(=O)N[C@@H](CC(=O)O)C(=O)N[C@H](C(=O)O)C(C)C)C(C)C)NC(=O)[C@H](CC(C)C)NC(=O)CNC(=O)[C@H](Cc2ccccc2)NC(=O)[C@H]([C@@H](C)CC)NC(=O)[C@@H]2CCCN2C(=O)[C@H](CC(C)C)NC(=O)[C@@H]2CCCN2C(=O)[C@H](C(C)C)NC3=O)NC(=O)[C@H](CC(C)C)NC(=O)CNC1=O` [ExTxA, excelsatoxin A] (H-LPRCDSPFCSLFRIGLCGDKCTCVPLPIFGLCVPDV-OH; disulfide 4-21, 9-23, 17-32), the “ExTxA-induced DRG Ca2+ responses” value in data set [1] (ExTxA 10 nM, wt, Fluo-4, >1.5-fold increase, mean ± SEM, n = 10 wells) stood at 53.20 ± 1.789 % neurons activated. In addition, the “calcium imaging response (Fig. 3f)” value in data set [1] (WT, individual values, one line each (n = 10)) was 51.5152 and 56.8182 and 58.0645 and 43.75 and 44.8276 and 50.7042 and 59.292 and 51.8519. The “calcium imaging response (Fig. 3f), Mean” value in data set [1] (WT, mean, number of values 10, Std. Deviation 5.657, SEM 1.789) amounted to 53.2. For the same compound, the “calcium imaging response (Fig. 3f), Median” value in data set [1] (WT, median, number of values 10) is given as 53.9. In addition, on NaV1.7/TMEM233 [2], the “depolarizing shift in the voltage-dependence of fast inactivation” value is 18.0 mV and the “hyperpolarizing shift in the voltage-dependence of activation” value is on record as 11.6 mV. Further, on NaV1.7/TMEM233 [2] (ExTxA 1 µM, NaV1.7/TMEM233, mean ± SEM, n = 7, control -24.31 ± 1.11), the V50 of Activation is given as -35.92 ± 1.00 mV. The compound further returned a V50 of Inactivation at NaV1.7/TMEM233 [2] (ExTxA 1 µM, NaV1.7/TMEM233, mean ± SEM, n = 8, control -67.77 ± 1.12) of -49.80 ± 3.20 mV. Besides, the “V50 of Activation, mean of differences (B - A)” value at NaV1.7/TMEM233 [2] (ExTxA vs. buffer, paired t test, 7 pairs) is on record as -11.61. For the same compound, the “V50 of Inactivation, mean of differences (B - A)” value on NaV1.7/TMEM233 [2] (ExTxA vs. buffer, paired t test, 8 pairs) was 17.97. Moreover, at NaV1.7/TMEM233 [2] (setting [4]), the “V50 of Activation” value was -34.91 and -38.74 and -38.17 and -35.28 and -37.07 and -36.44 and -30.84; the “V50 of Inactivation” value was -45.67 and -44.27 and -43.05 and -47.34 and -66.38 and -46.52 and -43.25 and -61.92. The “time constants of recovery from inactivation” value on NaV1.7/TMEM233 [3] is “a decrease in the time constants of recovery from inactivation”. The “persistent current (I40 ms/Ipeak)” value in the data set on hNaV1.2 is -0.01884 and -0.01572 and 0.004985 and 0.03852 and -0.01184 and -0.02181 and 0.005193 and -0.01291 and 0.01563 and -0.00224 and -0.00414. Also, at NaV1.7/TRARG1 (Nav1.7/TRARG1, 95% CI -6.511 to -5.182, Fig 4g), the LogEC50 is listed as -5.623. This compound returned a HillSlope at NaV1.7/TRARG1 (Nav1.7/TRARG1, Fig 4g) of 0.6926. The compound further yielded a Top on NaV1.7/TRARG1 (Nav1.7/TRARG1, best-fit, constraint Top < 1, Fig 4g) of 1. In addition, at NaV1.7/TRARG1 (co-expression with NaV1.7), the “ExTxA-induced currents with TRARG1” value is listed as “resulted in ExTxA-induced persistent currents”. Besides, the “pain behavior after intraplantar administration in mice” value with wild-type C57BL/6 mice was “elicits spontaneous pain behaviors and an axon reflex flare following intraplantar administration in mice”. Further, the paralysis with Drosophila melanogaster (after 15 min, control 1/25) is 2/52. Also, in the data set with Drosophila melanogaster (after 2 h, control 0/25), the death is recorded as 1/52.

The values above are taken from paper PMC10147923, “Pain-causing stinging nettle toxins target TMEM233 to modulate NaV1.7 function” (Nature Communications, 2023).
